Test results from publication PMC5887109, “Unravelling the Molecular Determinants of Bee Sensitivity to Neonicotinoid Insecticides” (Current Biology, 2018).

Tests used:
[1] = tested on: honeybee; conditions: cited from earlier work
[2] = biological target: T1, CYP9Q4 (Bombus terrestris, UniProt A0A9B0BBT5); assay: Activity of recombinant CYP9Q4 against fluorescent coumarin model substrates; format: biochemical, B. terrestris
Experimental: (§1) The activity of individual A. mellifera and B. terrestris recombinant P450s were tested against seven fluorescent model substrates (all purchased from Sigma); 7-methoxy-coumarin (MC), 7-Methoxy-4-(tri-fluoromethyl)-coumarin (MFC), 7-ethoxy-coumarin (EC), 7-benzyloxy-4-(trifluoromethyl)-coumarin (BFC), 7-ethoxy-4-trifluoro-methylcoumarin (EFC), 7-benzyloxymethoxy-4-trifluoromethyl coumarin (BOMFC), and 7-p-methoxy-benzyloxy-4-trifluoro coumarin (MOBFC). Assays were carried out in black flat-bottomed 96-well plates in a 100 μL reaction containing 2 pmol of P450 per 50 μg of protein (B. terrestris) or 50 μg/well (A. mellifera), 1 mM of NADPH (Sigma) and […] of a model substrate (Sigma). Three replicates were carried out for each data point. P450s incubated without NADPH and wells containing only potassium phosphate buffer served as controls. Samples were incubated at 25°C for 45 min (B. terrestris) or 30°C for 30 min (A. mellifera). Data were recorded using a SpectraMax Gemini XPS (B. terrestris) or a SpectraMax M2 (A. mellifera) at the excitation/emission wavelength suitable for each model substrate (MC, EC at 390-465, BFC, MFC at 410-535, EFC at 410-510 and BOMFC and MOBFC at 405-510 nm). As these substrates have a similar emission wavelength to NADPH (460 nm) the reaction was terminated prior to measurement by the addition of 100μL of a stop solution (25% DMSO, 0.05 M Tris/HCL pH10, 5 mM glutathione oxidised, and 0.2 U glutathione reductase). The reactions were incubated at 25°C (B. terrestris) or 30°C (A. mellifera) for a further 15 min and the data were recorded at the required excitation/emission wavelengths stated above. 7-hydroxy-4-(trifluoromethyl)-coumarin (HFC) (Sigma) was used to generate a standard curve for model substrates BFC, EFC, MFC, MOBFC, and BOMFC and 7-hydroxycoumarin (HC) (Sigma) for model substrates EC and MC. […] The florescence was measured as above at the corresponding wavelengths for each model substrate. […] This was then subtracted from the average fluorescence measurement of each P450 along with the average control measurements.

[3] = biological target: T2, CYP9Q1 (Apis mellifera, UniProt A0A7M7GTV9); assay: in vitro; conditions: hydroxylation (thiacloprid, imidacloprid) or N-desmethylation (acetamiprid)
From the text: (§2) All bee P450 (see Table S3 for accession numbers) and house fly NADPH-dependent cytochrome P450 reductase (CPR) (GenBank accession number Q07994) genes were obtained by gene synthesis (Geneart, CA, USA) and inserted into the pDEST8 expression vector (Invitrogen). Codon optimization of all bee genes was used to optimize expression in lepidopteran cell lines. The PFastbac1 vector with no inserted DNA was used to produce a control virus. The recombinant baculovirus DNA was constructed and transfected into Trichoplusia ni (High five cells, Thermo Fisher) using the Bac-to-Bac baculovirus expression system (Invitrogen) according to the manufacturer’s instructions. The titer of the recombinant virus was determined following protocols of the supplier. High Five cells grown to a density of 2 × 10^6 cells ml^-1 were co-infected with recombinant baculoviruses containing each bee P450 and CPR with a range of MOI (multiplicity of infection) ratios to identify the optimal conditions. Control cells were co-infected with the baculovirus containing vector with no insert (ctrl-virus) and the recombinant baculovirus expressing CPR using the same MOI ratios. Ferric citrate and δ-aminolevulinic acid hydrochloride were added to a final concentration of 0.1 mM at the time of infection and 24 h after infection to compensate the low levels of endogenous heme in the insect cells. After 48 h, cells were harvested, washed with PBS, and microsomes of the membrane fraction prepared according to standard procedures and stored at −80°C [31]. Briefly, pellets were homogenized for 30 s in 0.1M Na/K-phosphate buffer, pH 7.4 containing 1mM EDTA and DTT and 200mM sucrose using a Fastprep (MP Biomedicals), filtered through miracloth and centrifuging for 10 min at 680 g at 4°C. The supernatant was then centrifuged for 1 h at 100,000 g at 4°C, with the pellet subsequently resuspended in 0.1M Na/K-phosphate buffer, pH 7.6 containing 1mM EDTA and DTT and 10% glycerol using a Dounce tissue grinder. P450 expression and functionality was estimated by measuring CO-difference spectra in reduced samples using a Specord 200 Plus Spectrophotometer (Analytik Jena) and scanning from 500 nm to 400 nm. The protein content of samples was determined using Bradford reagent (Sigma) and bovine serum albumin (BSA) as a reference.
(§3) The total assay volume was 200 μL using three replicates for each data point. Microsomes incubated without NADPH served as a control. The assay was stopped by the addition of ice-cold acetonitrile (to 80% final concentration), centrifuged for 10 min at 3000 g and the supernatant subsequently analyzed by tandem mass spectrometry as described previously. For the chromatography on a Waters Acquity HSS T3 column (2.1x50mm, 1.8μm), acetonitrile/water/0.1% formic acid was used as the eluent in gradient mode. […] The peak integrals were calibrated externally against a standard calibration curve. […] Substrate turnover from two independent reactions were plotted versus controls and Michaelis-Menten kinetics determined using GraphPad Prism version 7 (GraphPad Software, CA, USA).

[4] = biological target: T3, CYP9Q2 (Apis mellifera, UniProt A0A7M7R6F2); assay: in vitro; conditions: hydroxylation (thiacloprid, imidacloprid) or N-desmethylation (acetamiprid)
T3 sequence (A0A7M7R6F2 1-532): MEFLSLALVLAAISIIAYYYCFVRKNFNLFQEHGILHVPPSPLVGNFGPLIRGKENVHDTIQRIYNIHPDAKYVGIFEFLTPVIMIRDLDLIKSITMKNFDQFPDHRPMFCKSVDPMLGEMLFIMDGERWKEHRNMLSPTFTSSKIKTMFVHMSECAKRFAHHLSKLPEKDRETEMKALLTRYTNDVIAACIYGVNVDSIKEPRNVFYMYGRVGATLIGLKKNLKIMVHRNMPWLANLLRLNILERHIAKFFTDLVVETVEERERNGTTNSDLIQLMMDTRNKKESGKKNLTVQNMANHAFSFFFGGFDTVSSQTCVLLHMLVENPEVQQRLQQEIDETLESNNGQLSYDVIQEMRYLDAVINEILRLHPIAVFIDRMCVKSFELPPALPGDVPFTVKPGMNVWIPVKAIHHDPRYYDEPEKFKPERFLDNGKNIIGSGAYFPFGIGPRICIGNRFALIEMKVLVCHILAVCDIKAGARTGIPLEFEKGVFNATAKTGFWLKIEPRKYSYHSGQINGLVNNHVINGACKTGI
T3 sequence (Q07994 1-671 partner): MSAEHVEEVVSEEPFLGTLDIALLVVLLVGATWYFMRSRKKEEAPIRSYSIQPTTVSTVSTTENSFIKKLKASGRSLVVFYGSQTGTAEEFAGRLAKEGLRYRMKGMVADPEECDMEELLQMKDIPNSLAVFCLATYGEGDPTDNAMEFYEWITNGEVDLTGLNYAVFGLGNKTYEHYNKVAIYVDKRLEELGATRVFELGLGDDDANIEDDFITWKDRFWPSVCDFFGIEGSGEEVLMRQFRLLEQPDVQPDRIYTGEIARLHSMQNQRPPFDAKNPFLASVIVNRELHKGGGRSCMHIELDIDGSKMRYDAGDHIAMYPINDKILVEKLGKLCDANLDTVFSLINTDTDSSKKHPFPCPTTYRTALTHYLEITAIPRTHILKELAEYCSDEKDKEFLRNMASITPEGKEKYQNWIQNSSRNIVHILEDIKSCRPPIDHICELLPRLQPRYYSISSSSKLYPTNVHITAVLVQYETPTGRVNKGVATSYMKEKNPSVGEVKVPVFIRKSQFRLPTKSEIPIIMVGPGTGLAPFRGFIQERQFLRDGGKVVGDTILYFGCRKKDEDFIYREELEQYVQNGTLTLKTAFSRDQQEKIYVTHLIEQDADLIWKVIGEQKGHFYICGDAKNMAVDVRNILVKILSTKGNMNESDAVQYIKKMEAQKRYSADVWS
From the text: as §2, §3

[5] = biological target: T4, CYP9Q3 (Apis mellifera, UniProt A0A7M7LMV1); assay: in vitro; conditions: hydroxylation (thiacloprid, imidacloprid) or N-desmethylation (acetamiprid)
From the text: as §2, §3

[6] = biological target: T1, CYP9Q4; assay: Metabolism by recombinant CYP9Q4/CPR microsomes, LC-MS/MS; conditions: hydroxylation (thiacloprid) or N-desmethylation (acetamiprid)
From the text: as §2
(§4) The total assay volume was 200 μL using three replicates for each data point. […] The assay was stopped by the addition of ice-cold acetonitrile (to 80% final concentration), centrifuged for 10 min at 3000 g and the supernatant subsequently analyzed by tandem mass spectrometry as described previously. […] Substrate turnover from two independent reactions were plotted versus controls and Michaelis-Menten kinetics determined using GraphPad Prism version 7 (GraphPad Software, CA, USA).

[7] = tested on: CYP9Q5; assay: Metabolism by recombinant CYP9Q5/CPR microsomes, LC-MS/MS; conditions: hydroxylation (thiacloprid) or N-desmethylation (acetamiprid)
From the text: as §2, §4

[8] = biological target: T2, CYP9Q1; assay: Activity of recombinant CYP9Q1 against fluorescent coumarin model substrates; format: biochemical, A. mellifera
Experimental: as §1, with “Three replicates were carried out for each data point. P450s incubated without NADPH and wells containing only potassium phosphate buffer served as controls. Samples were incubated at 25°C for 45 min (B. terrestris) or 30°C for 30 min (A. mellifera).” left out, “As these substrates have a similar emission wavelength to NADPH (460 nm) the reaction was terminated prior to measurement by the addition of 100μL of a stop solution (25% DMSO, 0.05 M Tris/HCL pH10, 5 mM glutathione oxidised, and 0.2 U glutathione reductase).” left out, “above.” for “above. 7-hydroxy-4-(trifluoromethyl)-coumarin (HFC) (Sigma) was used to generate a standard curve for model substrates BFC, EFC, MFC, MOBFC, and BOMFC and 7-hydroxycoumarin (HC) (Sigma) for model substrates EC and MC.”

[9] = biological target: T4, CYP9Q3; assay: Activity of recombinant CYP9Q3 against fluorescent coumarin model substrates; format: biochemical, A. mellifera
Experimental: as §1, with “Three replicates were carried out for each data point. P450s incubated without NADPH and wells containing only potassium phosphate buffer served as controls. Samples were incubated at 25°C for 45 min (B. terrestris) or 30°C for 30 min (A. mellifera).” left out, “As these substrates have a similar emission wavelength to NADPH (460 nm) the reaction was terminated prior to measurement by the addition of 100μL of a stop solution (25% DMSO, 0.05 M Tris/HCL pH10, 5 mM glutathione oxidised, and 0.2 U glutathione reductase).” left out, “above.” for “above. 7-hydroxy-4-(trifluoromethyl)-coumarin (HFC) (Sigma) was used to generate a standard curve for model substrates BFC, EFC, MFC, MOBFC, and BOMFC and 7-hydroxycoumarin (HC) (Sigma) for model substrates EC and MC.”

[10] = tested on: CYP9Q5; assay: Activity of recombinant CYP9Q5 against fluorescent coumarin model substrates; format: biochemical, B. terrestris
Experimental: as §1, with “Three replicates were carried out for each data point. P450s incubated without NADPH and wells containing only potassium phosphate buffer served as controls. Samples were incubated at 25°C for 45 min (B. terrestris) or 30°C for 30 min (A. mellifera).” left out, “As these substrates have a similar emission wavelength to NADPH (460 nm) the reaction was terminated prior to measurement by the addition of 100μL of a stop solution (25% DMSO, 0.05 M Tris/HCL pH10, 5 mM glutathione oxidised, and 0.2 U glutathione reductase).” left out, “above.” for “above. 7-hydroxy-4-(trifluoromethyl)-coumarin (HFC) (Sigma) was used to generate a standard curve for model substrates BFC, EFC, MFC, MOBFC, and BOMFC and 7-hydroxycoumarin (HC) (Sigma) for model substrates EC and MC.”

T1 sequence (A0A9B0BBT5 entry or part of it, one chain of several): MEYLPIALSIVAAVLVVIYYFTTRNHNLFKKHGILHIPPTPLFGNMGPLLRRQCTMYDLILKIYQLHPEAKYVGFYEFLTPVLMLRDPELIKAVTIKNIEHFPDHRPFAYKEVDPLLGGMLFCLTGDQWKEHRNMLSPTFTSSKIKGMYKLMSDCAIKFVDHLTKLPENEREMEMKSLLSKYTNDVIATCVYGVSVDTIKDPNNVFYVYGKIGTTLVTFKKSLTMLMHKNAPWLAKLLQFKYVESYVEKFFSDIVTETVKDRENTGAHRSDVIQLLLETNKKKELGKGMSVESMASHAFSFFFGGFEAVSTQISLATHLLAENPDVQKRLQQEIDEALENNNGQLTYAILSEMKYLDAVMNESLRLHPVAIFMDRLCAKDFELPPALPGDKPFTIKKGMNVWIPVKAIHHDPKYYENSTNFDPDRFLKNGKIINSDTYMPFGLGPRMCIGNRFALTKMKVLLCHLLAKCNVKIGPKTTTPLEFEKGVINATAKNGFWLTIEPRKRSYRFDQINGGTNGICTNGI
T4 sequence (A0A7M7LMV1 entry or part of it, one chain of several): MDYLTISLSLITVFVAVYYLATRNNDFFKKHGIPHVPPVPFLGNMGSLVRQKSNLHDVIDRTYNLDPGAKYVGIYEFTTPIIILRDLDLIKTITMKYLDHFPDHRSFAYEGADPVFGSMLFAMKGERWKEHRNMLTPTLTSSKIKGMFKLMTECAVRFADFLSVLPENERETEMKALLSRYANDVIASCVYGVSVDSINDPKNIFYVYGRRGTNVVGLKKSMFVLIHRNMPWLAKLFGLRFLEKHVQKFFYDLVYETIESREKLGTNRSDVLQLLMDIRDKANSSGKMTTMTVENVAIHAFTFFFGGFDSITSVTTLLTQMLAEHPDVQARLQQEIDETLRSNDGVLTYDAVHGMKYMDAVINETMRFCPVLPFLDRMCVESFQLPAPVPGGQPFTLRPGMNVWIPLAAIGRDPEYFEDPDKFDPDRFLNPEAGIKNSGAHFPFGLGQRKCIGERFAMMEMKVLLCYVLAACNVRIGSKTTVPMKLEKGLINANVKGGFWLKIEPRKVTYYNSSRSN
T2 sequence (A0A7M7GTV9 entry or part of it, one chain of several): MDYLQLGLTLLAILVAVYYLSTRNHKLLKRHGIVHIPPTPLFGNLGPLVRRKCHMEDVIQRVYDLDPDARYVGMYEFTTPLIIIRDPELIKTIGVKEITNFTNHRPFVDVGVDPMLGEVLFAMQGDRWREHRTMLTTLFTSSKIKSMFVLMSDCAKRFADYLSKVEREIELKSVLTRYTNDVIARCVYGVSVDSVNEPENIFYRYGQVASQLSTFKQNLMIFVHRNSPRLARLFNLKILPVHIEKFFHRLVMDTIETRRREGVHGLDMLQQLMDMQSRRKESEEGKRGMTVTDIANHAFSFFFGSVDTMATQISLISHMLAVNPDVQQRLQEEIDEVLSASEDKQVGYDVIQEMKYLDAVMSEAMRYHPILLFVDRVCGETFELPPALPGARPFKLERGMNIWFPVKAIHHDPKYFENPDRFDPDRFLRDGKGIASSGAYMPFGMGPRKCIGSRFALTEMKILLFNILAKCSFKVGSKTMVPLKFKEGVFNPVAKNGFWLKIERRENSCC

CCCC1COC(Cn2cncn2)(c2ccc(Cl)cc2Cl)O1 (stereo not shown) [propiconazole]
effect of P450 inhibitor on honeybee sensitivity to imidacloprid ([1]; synergist plus imidacloprid): almost no effect | increase of honeybee sensitivity to thiacloprid by P450 inhibitor ([1]; synergist plus thiacloprid): 559 fold

COc1ccc(COc2ccc3c(C(F)(F)F)cc(=O)oc3c2)cc1 [MOBFC, 7-p-methoxy-benzyloxy-4-trifluoro coumarin]
activity against fluorescent coumarin model substrate (in words) [2]: activity

C/C(=N\C#N)N(C)Cc1ccc(Cl)nc1 [acetamiprid]
metabolism by the recombinant P450 (in words) [3]: capacity to metabolize | metabolism by the recombinant P450 (in words) [4]: highest activity | metabolism by the recombinant P450 (in words) [5]: highest activity | metabolism by the recombinant P450 (in words) [6]: highest activity | metabolism by the recombinant P450 (in words) [7]: highest activity

O=c1cc(C(F)(F)F)c2ccc(OCc3ccccc3)cc2o1 [BFC, 7-benzyloxy-4-trifluoromethyl coumarin]
activity against fluorescent coumarin model substrate (in words) [8]: highest specific activity | activity against fluorescent coumarin model substrate (in words) [9]: highest specific activity | activity against fluorescent coumarin model substrate (in words) [2]: no activity | activity against fluorescent coumarin model substrate (in words) [10]: no activity

COc1ccc2c(C(F)(F)F)cc(=O)oc2c1 [MFC, 7-methoxy-4-trifluoromethyl coumarin]
activity against fluorescent coumarin model substrate (in words) [2]: activity
